PubChem BioAssay (NCI)
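Grown in 96-well plates, cells were treated for 48 hours with each compound at five concentrations. Insufficient inhibition: endpoint recorded as highest concentration tested. TGI denotes the concentration required for complete inhibition of growth.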

Assays:
Test in all cases: DTP human tumour cell line panel, 48 h
[1] = system: SK-MEL-2 melanoma
[2] = system: SW-620 colon
[3] = system: M14 melanoma
[4] = system: OVCAR-3 ovarian
[5] = system: SF-268 CNS
[6] = system: RPMI-8226 leukemia
[7] = system: UACC-257 melanoma
[8] = system: LOX IMVI melanoma
[9] = system: HOP-62 NSCLC
[10] = system: SF-539 CNS
[11] = system: MDA-N
[12] = system: KM12 colon
[13] = system: HOP-92 NSCLC
[14] = system: HT29 colon
[15] = system: MDA-MB-435
[16] = system: SF-295 CNS
[17] = system: K-562 leukemia
[18] = system: EKVX NSCLC
[19] = system: HCT-15 colon
[20] = system: PC-3 prostate
[21] = system: MDA-MB-231 breast
[22] = system: SNB-75 CNS
[23] = system: SNB-19 CNS
[24] = system: HCC-2998 colon
[25] = system: CCRF-CEM leukemia
[26] = system: BT-549 breast
[27] = system: ACHN renal
[28] = system: HL-60(TB) leukemia
[29] = system: A549 NSCLC
[30] = system: OVCAR-4 ovarian
[31] = system: MCF7 breast
[32] = system: MOLT-4 leukemia
[33] = system: OVCAR-8 ovarian
[34] = system: NCI/ADR-RES ovarian
[35] = system: NCI-H23 lung
[36] = system: OVCAR-5 ovarian
[37] = system: SK-MEL-28 melanoma
[38] = system: RXF 393 renal
[39] = system: HS 578T breast
[40] = system: U251 CNS
[41] = system: SN12C renal
[42] = system: T-47D breast
[43] = system: UO-31 renal
[44] = system: DU-145 prostate
[45] = system: HCT-116 colon
[46] = system: 786-0 renal
[47] = system: UACC-62 melanoma
[48] = system: COLO 205 colon
[49] = system: A498 renal
[50] = system: SK-OV-3 ovarian
[51] = system: SR leukemia
[52] = system: NCI-H460 lung
[53] = system: CAKI-1 renal
[54] = system: SK-MEL-5 melanoma
[55] = system: TK-10 renal
[56] = system: IGROV1 ovarian
[57] = system: MALME-3M melanoma
[58] = system: NCI-H522 lung

Measured: TGI

Fc1ccccc1C1SCC2=Nc3ccccc3CN21 (stereo unspecified)
not listed: [56] | [57] | [58]
> 100 µM: all other assays above

COC(=O)[C@]12CCC(=O)N1[C@H](C(=O)O)Cc1c2[nH]c2ccccc12
not listed: [6] | [28]
> 100 µM: all other assays above
